According to patent US20210368793A1, “Method for Controlling PPO Resistant Weeds” (BASF SE, priority 2016, published 2021):

Experiments:
Assay type in all cases: in vivo
[1] = test system: Amaranthus tamariscinus (common waterhemp, AMATA), PPO resistant biotype 1 containing the ΔG210 mutation (w.2); assay: Greenhouse herbicidal test, PPO resistant common waterhemp biotype 1 (w.2); details: for activity on resistant weeds (w.2), in words: summary of the table, 2 and 4 g/ha, ΔG210 mutation; for Weed control (%) w.2: PPO resistant biotype 1 (ΔG210), scale 0 to 100
Source text: (§1) The culture containers used were plastic flowerpots containing loamy sand with approximately 3.0% of humus as the substrate. The seeds of the test plants were sown separately for each species and/or resistant biotype. For the pre-emergence treatment, the active ingredients, which had been suspended or emulsified in water, were applied directly after sowing by means of finely distributing nozzles. The containers were irrigated gently to promote germination and growth and subsequently covered with transparent plastic hoods until the plants had rooted. This cover caused uniform germination of the test plants, unless this had been impaired by the active ingredients. For the post-emergence treatment, the test plants were first grown to a height of 3 to 15 cm, depending on the plant habit, and only then treated with the active ingredients which had been suspended or emulsified in water. For this purpose, the test plants were either sown directly and grown in the same containers, or they were first grown separately as seedlings and transplanted into the test containers a few days prior to treatment. Depending on the species, the plants were kept at 10-25° C. or 20-35° C., respectively. The test period extended over 2 to 4 weeks. During this time, the plants were tended, and their response to the individual treatments was evaluated. The evaluation was carried out by using a scale from 0 to 100. 100 means no emergence of the plants or complete destruction of at least the above-ground parts, and 0 means no damage, or normal course of growth.
(§2) The plants used in the greenhouse experiments were of the following species and biotype: […]

[2] = test system: Amaranthus tamariscinus (common waterhemp, AMATA), sensitive biotype (w.1); assay: Greenhouse herbicidal test, sensitive common waterhemp (w.1); details: for Weed control (%) w.1: sensitive biotype, scale 0 (no damage) to 100 (complete destruction)
Source text: as §1, §2

[3] = test system: Amaranthus tamariscinus (common waterhemp, AMATA), PPO resistant biotype 2 containing the ΔG210 mutation (w.3); assay: Greenhouse herbicidal test, PPO resistant common waterhemp biotype 2 (w.3); details: for activity on resistant weeds (w.3), in words: summary of the table, 2 and 4 g/ha, ΔG210 mutation; for Weed control (%) w.3: PPO resistant biotype 2 (ΔG210), scale 0 to 100
Source text: as §1, §2

Question: Which results are given for `O=C1[C@H]2C[C@H](F)CN2C(=O)N1c1cc(NS(=O)(=O)CCl)c(Cl)cc1F` [(I).1, profluazol]?
Answer: activity on resistant weeds (w.2), in words [1]: very good activity; Weed control (%) w.2 ([1]; use rate 2 g/ha): 78%; Weed control (%) w.2 ([1]; use rate 4 g/ha): 92%; activity on sensitive weeds (w.1), in words ([2]; summary of the table, 2 and 4 g/ha): very good activity; Weed control (%) w.1 ([2]; use rate 2 g/ha): 88%; Weed control (%) w.1 ([2]; use rate 4 g/ha): 100%; activity on resistant weeds (w.3), in words [3]: very good activity; Weed control (%) w.3 ([3]; use rate 2 g/ha): 80%; Weed control (%) w.3 ([3]; use rate 4 g/ha): 88%

Question: What does the source list for `C#CCOc1cc(-n2nc3n(c2=O)CCCC3)c(Cl)cc1Cl` [azafenidin, reference compound]?
Answer: activity on resistant weeds (w.2), in words [1]: much weaker control of resistant in comparison to sensitive biotypes; Weed control (%) w.2 ([1]; use rate 2 g/ha): 62%; Weed control (%) w.2 ([1]; use rate 4 g/ha): 78%; Weed control (%) w.1 ([2]; use rate 2 g/ha): 88%; Weed control (%) w.1 ([2]; use rate 4 g/ha): 100%; activity on resistant weeds (w.3), in words [3]: much weaker control of resistant in comparison to sensitive biotypes; Weed control (%) w.3 ([3]; use rate 2 g/ha): 77%; Weed control (%) w.3 ([3]; use rate 4 g/ha): 77%
